By Kd is commonly meant the constant that tells how readily two partners part at equilibrium.

This note sets out measurements from ChEMBL document CHEMBL3991601, “The target landscape of clinical kinase drugs” (Science, 2017).

Structures are written as SMILES. Calls of active or inactive are those of the source.

Test [1] addresses Fibroblast growth factor receptor 1 (Homo sapiens, UniProt P11362).
For test [2], the target named is Tyrosine-protein kinase FRK (Homo sapiens, UniProt P42685).
Test [3] addresses T1, Mitogen-activated protein kinase kinase kinase 6 (Homo sapiens, UniProt O95382).
T1 sequence (O95382 whole entry): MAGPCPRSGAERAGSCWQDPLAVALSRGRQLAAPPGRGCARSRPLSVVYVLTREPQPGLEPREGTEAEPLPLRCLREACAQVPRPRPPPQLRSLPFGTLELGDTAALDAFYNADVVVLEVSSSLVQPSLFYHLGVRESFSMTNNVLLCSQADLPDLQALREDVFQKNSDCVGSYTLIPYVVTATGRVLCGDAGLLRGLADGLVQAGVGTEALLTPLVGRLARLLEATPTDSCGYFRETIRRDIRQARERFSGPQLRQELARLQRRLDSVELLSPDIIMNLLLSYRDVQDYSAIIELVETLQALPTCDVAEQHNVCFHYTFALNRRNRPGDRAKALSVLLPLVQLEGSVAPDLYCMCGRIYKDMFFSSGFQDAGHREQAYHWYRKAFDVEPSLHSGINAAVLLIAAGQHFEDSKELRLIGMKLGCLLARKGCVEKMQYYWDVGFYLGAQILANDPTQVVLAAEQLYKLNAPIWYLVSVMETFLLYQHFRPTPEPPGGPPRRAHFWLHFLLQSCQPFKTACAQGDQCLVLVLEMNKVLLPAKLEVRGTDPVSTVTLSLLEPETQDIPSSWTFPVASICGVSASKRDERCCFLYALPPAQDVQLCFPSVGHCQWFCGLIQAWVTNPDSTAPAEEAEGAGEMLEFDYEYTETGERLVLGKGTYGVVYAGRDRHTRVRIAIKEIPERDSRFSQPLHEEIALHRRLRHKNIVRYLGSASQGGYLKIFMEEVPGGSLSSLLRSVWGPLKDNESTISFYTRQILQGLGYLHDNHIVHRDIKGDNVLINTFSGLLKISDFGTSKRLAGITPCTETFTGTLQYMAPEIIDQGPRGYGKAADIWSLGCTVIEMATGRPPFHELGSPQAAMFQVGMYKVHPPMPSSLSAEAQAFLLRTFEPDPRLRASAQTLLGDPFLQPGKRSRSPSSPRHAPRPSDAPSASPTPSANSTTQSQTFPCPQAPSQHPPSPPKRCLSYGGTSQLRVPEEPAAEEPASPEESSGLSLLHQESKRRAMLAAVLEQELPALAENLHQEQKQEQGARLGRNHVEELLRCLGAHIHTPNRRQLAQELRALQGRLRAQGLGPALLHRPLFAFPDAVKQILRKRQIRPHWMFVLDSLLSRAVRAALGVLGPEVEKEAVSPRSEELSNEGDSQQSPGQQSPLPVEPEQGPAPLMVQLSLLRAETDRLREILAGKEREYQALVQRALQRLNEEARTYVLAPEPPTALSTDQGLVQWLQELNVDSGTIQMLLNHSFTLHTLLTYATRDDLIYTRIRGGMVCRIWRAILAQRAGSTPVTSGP

Test [4] addresses Mitogen-activated protein kinase 11 (Homo sapiens, UniProt Q15759).
Test [5] addresses T2, Pyridoxal kinase (Homo sapiens, UniProt O00764).
T2 sequence (O00764 whole entry): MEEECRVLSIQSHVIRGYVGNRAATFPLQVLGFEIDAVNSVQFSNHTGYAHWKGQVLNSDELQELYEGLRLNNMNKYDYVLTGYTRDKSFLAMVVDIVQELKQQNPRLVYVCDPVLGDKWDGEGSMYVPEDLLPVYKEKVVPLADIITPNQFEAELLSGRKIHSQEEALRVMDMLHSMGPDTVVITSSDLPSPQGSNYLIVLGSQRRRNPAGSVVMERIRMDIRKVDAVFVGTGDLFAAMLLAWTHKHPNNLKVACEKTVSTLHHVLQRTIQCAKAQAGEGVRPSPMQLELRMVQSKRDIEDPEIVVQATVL

For test [6], the target named is T3, Phosphorylase b kinase gamma catalytic chain, liver/testis isoform (Homo sapiens, UniProt P15735).
T3 sequence (P15735 whole entry): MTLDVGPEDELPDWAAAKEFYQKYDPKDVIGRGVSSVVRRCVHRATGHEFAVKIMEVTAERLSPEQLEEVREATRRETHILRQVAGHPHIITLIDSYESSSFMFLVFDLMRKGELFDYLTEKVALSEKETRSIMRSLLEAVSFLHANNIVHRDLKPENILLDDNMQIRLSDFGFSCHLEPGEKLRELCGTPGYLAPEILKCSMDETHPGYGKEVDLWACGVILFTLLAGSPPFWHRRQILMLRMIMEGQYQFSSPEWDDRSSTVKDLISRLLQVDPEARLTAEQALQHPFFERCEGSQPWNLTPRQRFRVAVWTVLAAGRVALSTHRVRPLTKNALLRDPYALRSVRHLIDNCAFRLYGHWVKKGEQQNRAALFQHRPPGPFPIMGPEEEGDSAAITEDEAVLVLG

Test [7] concerns the target T4, Glycogen phosphorylase, brain form (Homo sapiens, UniProt P11216).
T4 sequence (P11216 whole entry): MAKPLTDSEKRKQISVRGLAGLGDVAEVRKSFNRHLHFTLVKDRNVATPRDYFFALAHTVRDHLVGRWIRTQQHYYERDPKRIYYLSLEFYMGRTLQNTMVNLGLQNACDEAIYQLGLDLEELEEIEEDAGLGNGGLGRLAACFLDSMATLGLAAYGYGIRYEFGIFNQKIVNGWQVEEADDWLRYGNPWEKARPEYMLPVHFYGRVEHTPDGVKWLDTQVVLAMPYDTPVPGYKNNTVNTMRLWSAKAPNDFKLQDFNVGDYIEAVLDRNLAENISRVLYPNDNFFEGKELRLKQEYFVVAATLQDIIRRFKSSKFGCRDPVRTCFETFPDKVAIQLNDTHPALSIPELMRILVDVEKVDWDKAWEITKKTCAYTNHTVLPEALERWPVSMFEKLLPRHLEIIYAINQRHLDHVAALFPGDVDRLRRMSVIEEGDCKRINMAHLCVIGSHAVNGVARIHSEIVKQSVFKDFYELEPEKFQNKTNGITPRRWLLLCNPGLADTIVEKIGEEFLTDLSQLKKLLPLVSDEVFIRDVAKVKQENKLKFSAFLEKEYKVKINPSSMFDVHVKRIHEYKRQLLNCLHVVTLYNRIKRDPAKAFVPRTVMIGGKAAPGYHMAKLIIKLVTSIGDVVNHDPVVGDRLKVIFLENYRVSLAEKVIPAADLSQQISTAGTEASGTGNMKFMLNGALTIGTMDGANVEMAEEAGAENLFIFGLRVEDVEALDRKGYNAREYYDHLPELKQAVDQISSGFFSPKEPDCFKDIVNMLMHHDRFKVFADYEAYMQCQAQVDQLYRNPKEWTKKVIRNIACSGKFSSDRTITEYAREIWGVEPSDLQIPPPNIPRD
Further: in the data inactive means no Kd found up to 30 µM.

Sequence of Tyrosine-protein kinase FRK (P42685 whole entry): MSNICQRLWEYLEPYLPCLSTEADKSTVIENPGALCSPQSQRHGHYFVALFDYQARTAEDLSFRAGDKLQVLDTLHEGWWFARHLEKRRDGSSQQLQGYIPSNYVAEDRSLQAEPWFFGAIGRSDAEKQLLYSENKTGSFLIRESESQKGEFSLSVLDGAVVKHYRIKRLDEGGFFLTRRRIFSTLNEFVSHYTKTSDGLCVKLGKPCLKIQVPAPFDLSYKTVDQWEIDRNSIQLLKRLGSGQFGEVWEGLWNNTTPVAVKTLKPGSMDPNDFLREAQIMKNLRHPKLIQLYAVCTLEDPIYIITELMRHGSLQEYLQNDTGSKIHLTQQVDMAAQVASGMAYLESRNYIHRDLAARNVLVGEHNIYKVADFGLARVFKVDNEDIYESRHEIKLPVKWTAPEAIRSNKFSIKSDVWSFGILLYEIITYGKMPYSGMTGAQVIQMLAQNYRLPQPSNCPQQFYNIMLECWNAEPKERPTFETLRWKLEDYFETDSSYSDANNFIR
Sequence of Mitogen-activated protein kinase 11 (Q15759 whole entry): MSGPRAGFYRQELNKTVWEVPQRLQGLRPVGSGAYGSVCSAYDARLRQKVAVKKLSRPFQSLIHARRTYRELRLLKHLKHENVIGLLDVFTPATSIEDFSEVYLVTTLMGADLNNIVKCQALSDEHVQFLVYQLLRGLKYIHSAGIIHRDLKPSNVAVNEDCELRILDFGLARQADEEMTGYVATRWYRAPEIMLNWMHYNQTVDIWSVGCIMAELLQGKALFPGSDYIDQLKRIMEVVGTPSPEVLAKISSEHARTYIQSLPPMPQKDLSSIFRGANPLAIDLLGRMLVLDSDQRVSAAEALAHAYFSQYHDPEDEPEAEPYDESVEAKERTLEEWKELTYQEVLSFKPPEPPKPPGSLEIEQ
Sequence of Fibroblast growth factor receptor 1 (P11362 whole entry): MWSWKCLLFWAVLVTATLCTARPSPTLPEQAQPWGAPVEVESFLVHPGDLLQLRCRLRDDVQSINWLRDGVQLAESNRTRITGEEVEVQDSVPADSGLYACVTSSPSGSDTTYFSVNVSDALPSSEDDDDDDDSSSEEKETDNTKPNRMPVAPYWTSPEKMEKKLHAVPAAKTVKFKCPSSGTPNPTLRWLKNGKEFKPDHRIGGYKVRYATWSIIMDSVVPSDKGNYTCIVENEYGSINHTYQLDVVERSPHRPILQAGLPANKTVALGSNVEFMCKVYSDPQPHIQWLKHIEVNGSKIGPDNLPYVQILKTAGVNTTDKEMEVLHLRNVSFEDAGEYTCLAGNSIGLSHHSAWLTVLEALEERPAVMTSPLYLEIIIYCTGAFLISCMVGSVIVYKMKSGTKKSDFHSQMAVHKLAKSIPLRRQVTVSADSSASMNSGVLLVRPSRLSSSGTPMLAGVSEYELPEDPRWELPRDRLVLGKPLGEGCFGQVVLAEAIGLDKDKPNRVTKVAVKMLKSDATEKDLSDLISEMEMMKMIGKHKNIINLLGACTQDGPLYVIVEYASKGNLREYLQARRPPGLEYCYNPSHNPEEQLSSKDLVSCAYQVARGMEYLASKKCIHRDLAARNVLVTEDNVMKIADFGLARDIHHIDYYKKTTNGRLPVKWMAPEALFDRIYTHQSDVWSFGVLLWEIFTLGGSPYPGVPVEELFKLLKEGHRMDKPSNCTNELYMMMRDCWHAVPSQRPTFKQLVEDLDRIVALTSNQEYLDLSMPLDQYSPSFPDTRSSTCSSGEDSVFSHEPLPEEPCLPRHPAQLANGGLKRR

Turning to `CC(=O)c1cnc2ccc(-c3cc(Cl)c(O)c(Cl)c3)nc2c1N[C@H]1CC[C@H](CN(C)C)CC1`, the Kd in test [1] was > 30 µM (inactive); in test [2], > 30 µM (inactive); in test [3] it was 1.91 µM (active); in test [4], > 30 µM (inactive); in test [5], > 30 µM (inactive); in test [6] it was 0.397 µM (active). Also, in test [7], the Kd was > 30 µM (inactive).

In the case of `Cc1nc2cc(-c3nn(C(C)C)c4ncnc(N)c34)ccc2o1`, the Kd in test [2], in test [3], in test [4], in test [5], in test [6] and in test [7] was > 30 µM (inactive) in each case.

`COc1cc(Nc2ncc3c(n2)-c2ccc(Cl)cc2C(c2c(F)cccc2OC)=NC3)ccc1C(=O)O` [ALISERTIB]: the Kd in test [3], in test [4], in test [5] and in test [7] was > 30 µM (inactive) each time.

For the compound `Cc1nc(NC(=O)N2CCC[C@H]2C(N)=O)sc1-c1ccnc(C(C)(C)C(F)(F)F)c1` [ALPELISIB], the Kd in test [1], in test [2], in test [3], in test [5], in test [6] and in test [7] was > 30 µM (inactive) throughout.

With `O=C(Nc1c[nH]nc1-c1nc2cc(CN3CCOCC3)ccc2[nH]1)NC1CC1` [AT-9283], the Kd in test [2], in test [3], in test [4], in test [5] and in test [7] was > 30 µM (inactive) throughout.

Consider `CNC(=O)c1ccccc1Sc1ccc2c(/C=C/c3ccccn3)n[nH]c2c1` [AXITINIB], for which the Kd in test [5] and in test [7] was > 30 µM (inactive) throughout.

As to `Cc1cc(C(=O)NOCCO)c(Nc2ccc(I)cc2F)n(C)c1=O` [AZD-8330], the Kd in test [1], in test [2], in test [3], in test [5], in test [6] and in test [7] was > 30 µM (inactive) throughout.

Consider `Cn1cc(C2=C(c3cn(C4CCN(Cc5ccccn5)CC4)c4ccccc34)C(=O)NC2=O)c2ccccc21` [ENZASTAURIN], for which the Kd in test [5] and in test [7] was > 30 µM (inactive) each time.

On to `Cc1nc2cc(-n3ncc(C(=O)c4cc5ccccc5[nH]4)c3N)ccc2[nH]1` [FGFR INHIBITOR DEBIO 1347], for which the Kd was > 30 µM (inactive) in test [2]; > 30 µM (inactive) in test [3]; > 30 µM (inactive) in test [4]; 2.11 µM (active) in test [5]; > 30 µM (inactive) in test [6].

Regarding `C[C@@H](Oc1cc(-n2cnc3ccc(CN4CCN(C)CC4)cc32)sc1C(N)=O)c1ccccc1C(F)(F)F` [GSK-461364], the Kd in test [5] and in test [7] was > 30 µM (inactive) in each case.

On to `CCn1cc(-c2ccnc3[nH]c(-c4cccc(CN(C)C)c4)cc23)c(-c2ccc(NC(=O)N(C)C)cc2)n1` [GSK-1070916], for which the Kd in test [2], in test [3], in test [4], in test [5], in test [6] and in test [7] was > 30 µM (inactive) in each case.

With `Cc1[nH]c(/C=C2\C(=O)Nc3ccccc32)c(C)c1CCC(=O)O` [ORANTINIB], the Kd in test [3], in test [4], in test [5] and in test [7] was > 30 µM (inactive) throughout.

As to `NC(=O)c1c(OCc2c(F)cc(Br)cc2F)nsc1NC(=O)NCCCCN1CCCC1` [OSI-632], the Kd in test [3], in test [4], in test [5] and in test [7] was > 30 µM (inactive) throughout.

Consider `CC(=O)NCC(=O)N1[C@@H]2CC[C@H]1c1ccc(Nc3ncc(C(F)(F)F)c(NC4CCC4)n3)cc12` [PF-03814735], for which the Kd in test [3] is 1.06 µM (active); in test [4], > 30 µM (inactive); in test [5] it was > 30 µM (inactive); in test [7], > 30 µM (inactive).

As to `CNC(=O)c1cc(Oc2ccc(NC(=O)Nc3cc(C(C)(C)C)nn3-c3ccc4ncccc4c3)c(F)c2)ccn1` [REBASTINIB], the Kd in test [3], in test [4], in test [5], in test [6] and in test [7] was > 30 µM (inactive) each time.

As for `O=C(NOCCO)c1cc(CN2OCCCC2=O)c(F)c(F)c1Nc1ccc(I)cc1F` [RO-4987655], the Kd in test [5] and in test [7] was > 30 µM (inactive) throughout.

With `N#CC[C@H](C1CCCC1)n1cc(-c2ncnc3[nH]ccc23)cn1` [RUXOLITINIB], the Kd in test [5] and in test [7] was > 30 µM (inactive) each time.

For the compound `CO[C@H]1C[C@@H]2CC[C@@H](C)[C@@](O)(O2)C(=O)C(=O)N2CCCC[C@H]2C(=O)O[C@H]([C@H](C)C[C@@H]2CC[C@@H](OC(=O)C(C)(CO)CO)[C@H](OC)C2)CC(=O)[C@H](C)/C=C(\C)[C@@H](O)[C@@H](OC)C(=O)[C@H](C)C[C@H](C)/C=C/C=C/C=C/1C` [TEMSIROLIMUS], the Kd in test [1], in test [2], in test [3], in test [4], in test [5] and in test [6] was > 30 µM (inactive) in each case.
